In ChEMBL document CHEMBL1201862, “PubChem BioAssay data set” (2004):
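Step 1: Grow cells in 96-well plates. Step 2: Expose to compound for 48 hours at 5 concentrations. Step 3: Interpolate endpoints linearly; if unreached, use highest concentration. At the GI50, growth is halved.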 Activity calls are given as the source filed them. No stated cut-off is given here; in the data, active = GI50 up to about 1.1 µM and inactive = higher.

Columns and labels:
Test in all cases: DTP human tumour cell line panel, 48 h
A498 = tested on: A498
DLD-1 = tested on: DLD-1
HCC 2998 = tested on: HCC 2998
HOP-62 = tested on: HOP-62
IGROV-1 = tested on: IGROV-1
KM12 = tested on: KM12
LOX IMVI = tested on: LOX IMVI
LXFL 529 = tested on: LXFL 529
M14 = tested on: M14
RPMI-8226 = tested on: RPMI-8226
SF-268 = tested on: SF-268
SF-539 = tested on: SF-539
SK-MEL-2 = tested on: SK-MEL-2
SNB-19 = tested on: SNB-19
U-251 = tested on: U-251
UACC-62 = tested on: UACC-62
NCI-H226 = tested on: NCI-H226

Structure (SMILES) | GI50 (A498) | GI50 (DLD-1) | GI50 (HCC 2998) | GI50 (HOP-62) | GI50 (IGROV-1) | GI50 (KM12) | GI50 (LOX IMVI) | GI50 (LXFL 529) | GI50 (M14) | GI50 (RPMI-8226) | GI50 (SF-268) | GI50 (SF-539) | GI50 (SK-MEL-2) | GI50 (SNB-19) | GI50 (U-251) | GI50 (UACC-62) | GI50 (NCI-H226)
COc1ccc(NCc2cc(OC)c(OC)c(OC)c2)cc1 | 0.543 µM (active) | 0.345 µM (active) | 0.277 µM (active) | 0.378 µM (active) | 0.631 µM (active) | 0.13 µM (active) | 0.519 µM (active) | 0.614 µM (active) | 0.457 µM (active) | 0.459 µM (active) | 1 µM (active) | 0.34 µM (active) | 0.245 µM (active) | 1.19 µM (inactive) | 0.439 µM (active) | 0.271 µM (active) | –
O=C(O/N=C1/CCC/C1=C\c1ccccc1)c1ccc(Cl)c(Cl)c1 | > 100 µM (inactive) | > 100 µM (inactive) | > 100 µM (inactive) | > 100 µM (inactive) | > 100 µM (inactive) | > 100 µM (inactive) | > 100 µM (inactive) | > 100 µM (inactive) | > 100 µM (inactive) | > 100 µM (inactive) | > 100 µM (inactive) | > 100 µM (inactive) | > 100 µM (inactive) | – | > 100 µM (inactive) | > 100 µM (inactive) | > 100 µM (inactive)
Nc1nc(CCl)nc(Nc2ccccc2)n1 | – | 36.9 µM (inactive) | 17.4 µM (inactive) | 16.3 µM (inactive) | 16.6 µM (inactive) | 15.1 µM (inactive) | – | 14.8 µM (inactive) | 16.9 µM (inactive) | 4.1 µM (inactive) | 19.2 µM (inactive) | 25 µM (inactive) | 18.8 µM (inactive) | 46.6 µM (inactive) | 3.99 µM (inactive) | 19 µM (inactive) | 26.2 µM (inactive)
O=C(O/N=C1/CCCC/C1=C\c1ccccc1)c1ccc(Cl)c(Cl)c1 | – | 84.5 µM (inactive) | > 100 µM (inactive) | 52.5 µM (inactive) | 21.5 µM (inactive) | 46.7 µM (inactive) | 20 µM (inactive) | 14.6 µM (inactive) | > 100 µM (inactive) | 36.2 µM (inactive) | 11.5 µM (inactive) | 24.5 µM (inactive) | > 100 µM (inactive) | 69.7 µM (inactive) | 17.3 µM (inactive) | 17.1 µM (inactive) | 45.9 µM (inactive)
Cc1ccc(S(=O)(=O)N(CC(=O)O)c2ccccc2)cc1 | > 100 µM (inactive) | > 100 µM (inactive) | > 100 µM (inactive) | – | > 100 µM (inactive) | > 100 µM (inactive) | > 100 µM (inactive) | > 100 µM (inactive) | > 100 µM (inactive) | > 100 µM (inactive) | > 100 µM (inactive) | > 100 µM (inactive) | > 100 µM (inactive) | > 100 µM (inactive) | > 100 µM (inactive) | > 100 µM (inactive) | –
COc1cc(Nc2cnc3cc(N)ccc3n2)cc(OC)c1OC | > 100 µM (inactive) | > 100 µM (inactive) | 50.1 µM (inactive) | 97.7 µM (inactive) | > 100 µM (inactive) | > 100 µM (inactive) | 65.5 µM (inactive) | 82.4 µM (inactive) | 98.6 µM (inactive) | – | > 100 µM (inactive) | > 100 µM (inactive) | > 100 µM (inactive) | > 100 µM (inactive) | 65.2 µM (inactive) | 64.4 µM (inactive) | –
COc1ccccc1NC(=O)C1=C(C)NC(C)=C(C(=O)Nc2ccccc2OC)C1c1ccccc1[N+](=O)[O-] | – | 16.9 µM (inactive) | 18.7 µM (inactive) | 33.2 µM (inactive) | 19.7 µM (inactive) | 16.8 µM (inactive) | 15.5 µM (inactive) | 11.7 µM (inactive) | 16.1 µM (inactive) | 19.1 µM (inactive) | 19.8 µM (inactive) | 19.6 µM (inactive) | 11.4 µM (inactive) | – | 14.5 µM (inactive) | 21.3 µM (inactive) | 15.2 µM (inactive)
Cn1c(NC(=O)NC23CC4CC(CC(C4)C2)C3)nc2ccccc21 | – | > 100 µM (inactive) | > 100 µM (inactive) | 30.5 µM (inactive) | > 100 µM (inactive) | > 100 µM (inactive) | > 100 µM (inactive) | 86.1 µM (inactive) | 47.8 µM (inactive) | > 100 µM (inactive) | 28.5 µM (inactive) | 81.1 µM (inactive) | 71.3 µM (inactive) | 95.1 µM (inactive) | 48.8 µM (inactive) | 40.1 µM (inactive) | 93.5 µM (inactive)
O=C(c1ccccc1)C(C(=O)c1ccccc1)C1(O)C(=O)c2ccccc2C1=O | 47.4 µM (inactive) | – | 39.4 µM (inactive) | 29.4 µM (inactive) | 53.3 µM (inactive) | 51.5 µM (inactive) | 32.4 µM (inactive) | 28.6 µM (inactive) | 26.9 µM (inactive) | 31.1 µM (inactive) | 24.7 µM (inactive) | 32.1 µM (inactive) | 6.17 µM (inactive) | 37.3 µM (inactive) | 21 µM (inactive) | 32.6 µM (inactive) | 37.1 µM (inactive)
